Results as given in US9351955B2, “Compounds and pharmaceutical compositions thereof for the treatment of cystic fibrosis” (Galapagos NV, priority 2013, dated 2016).

Assays:
CFTR ΔF508 mutant = biological target: T1, CFTR ΔF508 mutant (Homo sapiens, UniProt P13569, DEL508-508); assay: YFP-halide influx assay for the CFTR-ΔF508 mutation (384 well, CFBE41o- cells, FDSS/μCell); assay type: cell-based; details: forskolin 10.67 μM, fluorescence after 36 seconds, read-out: EC50 measured by YFP-halide influx assay for the CFTR-ΔF508
T1 construct: expressed in transfected cells; host or cells: CFBE41o- (adenoviral transduction)
T1 sequence (P13569 with tags, fused parts or gaps DEL508-508): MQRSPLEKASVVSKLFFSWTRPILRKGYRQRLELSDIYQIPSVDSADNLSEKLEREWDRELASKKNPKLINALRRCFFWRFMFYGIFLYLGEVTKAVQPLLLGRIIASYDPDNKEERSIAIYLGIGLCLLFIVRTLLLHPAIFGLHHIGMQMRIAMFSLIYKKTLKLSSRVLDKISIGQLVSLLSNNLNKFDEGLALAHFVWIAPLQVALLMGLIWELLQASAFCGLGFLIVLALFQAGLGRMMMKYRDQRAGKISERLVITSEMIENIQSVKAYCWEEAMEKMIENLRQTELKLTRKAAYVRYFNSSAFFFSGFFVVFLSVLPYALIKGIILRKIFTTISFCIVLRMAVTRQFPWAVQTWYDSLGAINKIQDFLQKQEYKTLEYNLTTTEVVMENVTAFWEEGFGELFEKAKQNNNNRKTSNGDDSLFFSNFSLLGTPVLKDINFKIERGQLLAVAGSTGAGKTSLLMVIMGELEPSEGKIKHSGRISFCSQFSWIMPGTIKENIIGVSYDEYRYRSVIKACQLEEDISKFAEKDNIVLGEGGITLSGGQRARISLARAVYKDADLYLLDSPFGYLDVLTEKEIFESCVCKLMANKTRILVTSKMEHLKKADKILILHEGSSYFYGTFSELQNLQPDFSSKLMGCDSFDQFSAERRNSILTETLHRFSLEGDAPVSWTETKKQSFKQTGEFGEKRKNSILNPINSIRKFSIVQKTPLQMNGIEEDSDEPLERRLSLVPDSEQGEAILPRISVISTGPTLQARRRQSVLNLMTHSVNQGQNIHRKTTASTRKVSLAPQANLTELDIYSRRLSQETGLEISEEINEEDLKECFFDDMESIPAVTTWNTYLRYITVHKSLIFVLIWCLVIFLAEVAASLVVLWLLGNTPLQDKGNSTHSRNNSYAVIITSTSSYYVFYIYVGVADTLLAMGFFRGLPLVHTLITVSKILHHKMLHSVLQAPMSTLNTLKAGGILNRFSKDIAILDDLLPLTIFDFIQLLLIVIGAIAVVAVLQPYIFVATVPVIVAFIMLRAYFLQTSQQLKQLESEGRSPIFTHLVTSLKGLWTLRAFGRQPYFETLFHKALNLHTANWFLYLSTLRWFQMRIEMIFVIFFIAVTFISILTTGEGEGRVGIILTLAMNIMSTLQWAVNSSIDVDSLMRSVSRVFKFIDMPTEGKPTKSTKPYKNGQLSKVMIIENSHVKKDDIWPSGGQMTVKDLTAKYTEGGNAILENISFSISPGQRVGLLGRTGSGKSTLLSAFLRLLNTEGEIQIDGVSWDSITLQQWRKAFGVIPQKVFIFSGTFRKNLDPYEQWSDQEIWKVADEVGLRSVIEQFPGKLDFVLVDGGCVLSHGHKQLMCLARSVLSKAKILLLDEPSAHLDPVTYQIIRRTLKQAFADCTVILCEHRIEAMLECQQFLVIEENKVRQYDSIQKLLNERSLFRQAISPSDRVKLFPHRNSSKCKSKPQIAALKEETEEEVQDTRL
Source text: 6.2. YFP-Halide Influx Assay for the CFTR-ΔF508 Mutation
The YFP halide influx assay measures the functionality of the cystic fibrosis Transmembrane Conductance regulator (CFTR) channels in the cystic fibrosis bronchial epithelium cell line CFBE41o-. The assay is used to evaluate the capacity of compounds to increase the open probability of existing CFTR channels in the membrane. It makes use of the observation that the yellow fluorescent protein (YFP) variant YFP H148Q, I152L has its fluorescence substantially quenched by halide ions like Cl— and I— (Galietta et al., 2001; Nagai et al., 2002).
For this purpose, CFBE410-cells are seeded in 384 well plates (3000 CFBE cells/well). One day after seeding, the CFBE cells are transduced with adenoviral vectors that direct the expression of the CFTR ΔF508 mutant and of the YFP reporter. Cells are incubated at 27° C., 5% CO2 for 24 hours so as to allow for the proper folding and migration to the membrane of the CFTR channel or treated with a CFTR modulator during 24 h at 37° C.
(§1) The I— induced quenching of fluorescence is recorded on an immediately after injection of I— for 2 min on an FDSS/μCell (Hamamatsu). The capacity of a compound to increase the channel opening is directly correlated with the decrease in fluorescence, and is expressed as (1−(fluorescence after 36 seconds (F)/fluorescence before injection (F0))) and an EC50 can be derived from a (1−F/F0) vs compound concentration plot.

CFTR G551D mutant = biological target: T2, CFTR G551D mutant (Homo sapiens, UniProt P13569, G551D); assay: YFP-halide influx assay for the CFTR-G551D mutation (HEK293 cells); assay type: cell-based; details: HEK293 cells expressing CFTR G551D and YFP reporter; forskolin 10.67 μM; read-out: EC50 measured by YFP-halide influx assay for the CFTR-G551D
T2 construct: expressed in transfected cells; host or cells: HEK293 (reverse transfection with plasmids)
T2 sequence (P13569 whole entry G551D): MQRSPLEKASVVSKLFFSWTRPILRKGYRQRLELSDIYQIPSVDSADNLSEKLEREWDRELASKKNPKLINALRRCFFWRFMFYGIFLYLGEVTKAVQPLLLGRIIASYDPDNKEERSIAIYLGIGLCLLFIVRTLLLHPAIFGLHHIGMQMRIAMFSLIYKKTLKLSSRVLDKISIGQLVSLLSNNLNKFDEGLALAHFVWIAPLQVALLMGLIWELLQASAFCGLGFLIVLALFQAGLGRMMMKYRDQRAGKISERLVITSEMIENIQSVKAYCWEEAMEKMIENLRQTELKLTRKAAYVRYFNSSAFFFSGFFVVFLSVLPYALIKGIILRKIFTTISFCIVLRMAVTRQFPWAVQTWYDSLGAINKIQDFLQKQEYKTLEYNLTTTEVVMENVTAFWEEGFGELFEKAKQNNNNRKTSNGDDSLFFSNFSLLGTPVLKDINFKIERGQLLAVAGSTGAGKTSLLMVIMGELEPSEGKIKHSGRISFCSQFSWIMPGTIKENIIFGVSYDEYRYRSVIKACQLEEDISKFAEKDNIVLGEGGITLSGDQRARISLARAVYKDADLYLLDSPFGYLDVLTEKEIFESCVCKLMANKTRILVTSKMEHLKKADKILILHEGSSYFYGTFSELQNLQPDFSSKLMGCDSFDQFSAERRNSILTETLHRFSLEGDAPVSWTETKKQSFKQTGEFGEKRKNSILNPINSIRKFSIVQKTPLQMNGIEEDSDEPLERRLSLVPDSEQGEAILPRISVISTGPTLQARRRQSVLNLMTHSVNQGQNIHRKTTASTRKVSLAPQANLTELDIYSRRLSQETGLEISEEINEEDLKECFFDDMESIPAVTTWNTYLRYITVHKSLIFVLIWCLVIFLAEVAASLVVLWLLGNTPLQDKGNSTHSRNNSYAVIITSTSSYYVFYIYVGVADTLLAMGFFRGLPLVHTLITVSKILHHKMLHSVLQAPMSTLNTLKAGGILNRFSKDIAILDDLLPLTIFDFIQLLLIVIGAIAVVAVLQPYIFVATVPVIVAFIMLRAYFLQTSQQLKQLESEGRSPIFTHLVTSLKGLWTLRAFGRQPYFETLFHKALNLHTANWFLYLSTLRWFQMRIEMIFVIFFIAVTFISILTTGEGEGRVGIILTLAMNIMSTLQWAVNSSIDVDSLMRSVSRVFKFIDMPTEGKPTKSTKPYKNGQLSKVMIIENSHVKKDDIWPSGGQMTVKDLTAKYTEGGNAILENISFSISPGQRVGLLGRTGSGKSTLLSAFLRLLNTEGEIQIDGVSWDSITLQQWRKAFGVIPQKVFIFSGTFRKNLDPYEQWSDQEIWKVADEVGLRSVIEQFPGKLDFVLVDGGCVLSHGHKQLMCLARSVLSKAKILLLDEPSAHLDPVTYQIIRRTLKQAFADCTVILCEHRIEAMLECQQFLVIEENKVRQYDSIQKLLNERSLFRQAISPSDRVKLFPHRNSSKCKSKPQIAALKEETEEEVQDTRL
Source text: 6.3. YFP-Halide Influx Assay for the CFTR-G551D Mutation
The YFP halide influx assay measures the functionality of the cystic fibrosis Transmembrane Conductance regulator (CFTR) channels. The assay is used to evaluate the capacity of compounds to increase the channel opening of existing mutant CFTR channels in the membrane. It makes use of the observation that the yellow fluorescent protein (YFP) variant YFP H148Q, I152L, F47L has its fluorescence substantially quenched by halide ions like Cl^− and I^−. (Galietta et al., 2001)
For this purpose, HEK293-cells are seeded in 96 well plates. During seeding, the cells are reverse-transfected with plasmid vectors that direct the expression of the CFTR G551D mutant and of the YFP reporter. Cells are incubated at 37° C., 5% CO2 for 24 hours so as to allow for sufficient expression of the CFTR protein.
as §1, with “I^−-induced” for “I— induced”, “recorded” for “recorded on an”, “I^−” for “I—”, “7 seconds.” for “2 min on an FDSS/μCell (Hamamatsu).”, “7” for “36”

CC(C)C(O)C(=O)Nc1sc2c(c1C(N)=O)CC(C)(C)OC2(C)C (single isomer, unassigned) [Compound 51, 2-[[2-hydroxy-3-methyl-butanoyl]amino]-5,5,7,7-tetramethyl-4H-thieno[2,3-c]pyran-3-carboxamide]
EC50 (CFTR ΔF508 mutant): 0.0925 µM
EC50 (CFTR G551D mutant): 5.55 µM

CC1(C)Cc2c(sc(NC(=O)C(CO)CC3CC3)c2C(N)=O)C(C)(C)O1 (single isomer, unassigned) [Compound 96, 2-[[2-(cyclopropylmethyl)-3-hydroxy-propanoyl]amino]-5,5,7,7-tetramethyl-4H-thieno[2,3-c]pyran-3-carboxamide]
EC50 (CFTR ΔF508 mutant): 0.0974 µM
EC50 (CFTR G551D mutant): 3.33 µM

CC1(C)Cc2c(sc(NC(=O)C(CO)CC3CC3)c2C(N)=O)C(C)(C)O1 (single isomer, unassigned) [Compound 97, 2-[[2-(cyclopropylmethyl)-3-hydroxy-propanoyl]amino]-5,5,7,7-tetramethyl-4H-thieno[2,3-c]pyran-3-carboxamide]
EC50 (CFTR ΔF508 mutant): 0.113 µM
EC50 (CFTR G551D mutant): 2.78 µM

CC(C)(C)CC(O)C(=O)Nc1sc2c(c1C(N)=O)CC(C)(C)OC2(C)C (single isomer, unassigned) [Compound 109, 2-[[2-hydroxy-4,4-dimethyl-pentanoyl]amino]-5,5,7,7-tetramethyl-4H-thieno[2,3-c]pyran-3-carboxamide]
EC50 (CFTR ΔF508 mutant): 0.00432 µM
EC50 (CFTR G551D mutant): 3.26 µM

CC1(C)Cc2c(sc(NC(=O)c3n[nH]cc3C3COCCO3)c2C(N)=O)C(C)(C)O1 (single isomer, unassigned) [Compound 111, N-(3-carbamoyl-5,5,7,7-tetramethyl-4H-thieno[2,3-c]pyran-2-yl)-4-[1,4-dioxan-2-yl]-1H-pyrazole-3-carboxamide]
EC50 (CFTR ΔF508 mutant): 0.0239 µM
EC50 (CFTR G551D mutant): 3.1 µM

CC1(C)Cc2c(sc(NC(=O)c3n[nH]cc3C3COCCO3)c2C(N)=O)C(C)(C)O1 (single isomer, unassigned) [Compound 112, N-(3-carbamoyl-5,5,7,7-tetramethyl-4H-thieno[2,3-c]pyran-2-yl)-4-[1,4-dioxan-2-yl]-1H-pyrazole-3-carboxamide]
EC50 (CFTR ΔF508 mutant): 0.0344 µM
EC50 (CFTR G551D mutant): 1.83 µM

CC1(C)Cc2c(sc(NC(=O)C3CC(F)(F)C3)c2C(N)=O)C(C)(C)O1 [Compound 47, 2-[(3,3-difluorocyclobutanecarbonyl)amino]-5,5,7,7-tetramethyl-4H-thieno[2,3-c]pyran-3-carboxamide]
EC50 (CFTR ΔF508 mutant): 0.118 µM
EC50 (CFTR G551D mutant): 4.71 µM

CC1(C)Cc2c(sc(NC(=O)C3CC3(F)F)c2C(N)=O)C(C)(C)O1 (stereo not shown) [Compound 48, 2-[(2,2-difluorocyclopropanecarbonyl)amino]-5,5,7,7-tetramethyl-4H-thieno[2,3-c]pyran-3-carboxamide]
EC50 (CFTR ΔF508 mutant): 0.0666 µM
EC50 (CFTR G551D mutant): 4.57 µM

CC1(C)Cc2c(sc(NC(=O)c3cn[nH]c3)c2C(N)=O)C(C)(C)O1 [Compound 49, N-(3-carbamoyl-5,5,7,7-tetramethyl-4H-thieno[2,3-c]pyran-2-yl)-1H-pyrazole-4-carboxamide]
EC50 (CFTR ΔF508 mutant): 0.125 µM
EC50 (CFTR G551D mutant): 5.67 µM

CCC(O)C(=O)Nc1sc2c(c1C(N)=O)CC(C)(C)OC2(C)C (stereo not shown) [Compound 53, 2-(2-hydroxybutanoylamino)-5,5,7,7-tetramethyl-4H-thieno[2,3-c]pyran-3-carboxamide]
EC50 (CFTR ΔF508 mutant): 0.00991 µM
EC50 (CFTR G551D mutant): 3.33 µM

CC(O)C1(C(=O)Nc2sc3c(c2C(N)=O)CC(C)(C)OC3(C)C)CC1 (stereo not shown) [Compound 59, 2-[[1-(1-hydroxyethyl)cyclopropanecarbonyl]amino]-5,5,7,7-tetramethyl-4H-thieno[2,3-c]pyran-3-carboxamide]
EC50 (CFTR ΔF508 mutant): 0.00874 µM
EC50 (CFTR G551D mutant): 3.33 µM

CC1(C)Cc2c(sc(NC(=O)C(O)C3CC3)c2C(N)=O)C(C)(C)O1 (stereo not shown) [Compound 60, 2-[(2-cyclopropyl-2-hydroxy-acetyl)amino]-5,5,7,7-tetramethyl-4H-thieno[2,3-c]pyran-3-carboxamide]
EC50 (CFTR ΔF508 mutant): 0.0184 µM
EC50 (CFTR G551D mutant): 6.67 µM

CC(O)c1cc(C(=O)Nc2sc3c(c2C(N)=O)CC(C)(C)OC3(C)C)n[nH]1 (stereo not shown) [Compound 61, 5-(1-Hydroxy-ethyl)-1H-pyrazole-3-carboxylic acid (3-carbamoyl-5,5,7,7-tetramethyl-4,7-dihydro-5H-thieno[2,3-c]pyran-2-yl)-amide]
EC50 (CFTR ΔF508 mutant): 0.188 µM
EC50 (CFTR G551D mutant): 4.16 µM

CCOC(=O)C1CC1C(=O)Nc1sc2c(c1C(N)=O)CC(C)(C)OC2(C)C (stereo not shown) [Compound 62, 2-(3-Carbamoyl-5,5,7,7-tetramethyl-4,7-dihydro-5H-thieno[2,3-c]pyran-2-ylcarbamoyl)-cyclopropanecarboxylic acid ethyl ester]
EC50 (CFTR ΔF508 mutant): 0.301 µM
EC50 (CFTR G551D mutant): 3.33 µM

COC/C=C/c1c[nH]nc1C(=O)Nc1sc2c(c1C(N)=O)CC(C)(C)OC2(C)C [Compound 63, N-(3-carbamoyl-5,5,7,7-tetramethyl-4H-thieno[2,3-c]pyran-2-yl)-4-[(E)-3-methoxyprop-1-enyl]-1H-pyrazole-3-carboxamide]
EC50 (CFTR ΔF508 mutant): 0.0663 µM
EC50 (CFTR G551D mutant): 1.19 µM

CC1(C)Cc2c(sc(NC(=O)c3cc(C(C)(C)O)[nH]n3)c2C(N)=O)C(C)(C)O1 [Compound 64, N-(3-carbamoyl-5,5,7,7-tetramethyl-4H-thieno[2,3-c]pyran-2-yl)-5-(1-hydroxy-1-methyl-ethyl)-1H-pyrazole-3-carboxamide]
EC50 (CFTR ΔF508 mutant): 0.167 µM
EC50 (CFTR G551D mutant): 2.9 µM

COCCCc1c[nH]nc1C(=O)Nc1sc2c(c1C(N)=O)CC(C)(C)OC2(C)C [Compound 65, N-(3-carbamoyl-5,5,7,7-tetramethyl-4H-thieno[2,3-c]pyran-2-yl)-4-(3-methoxypropyl)-1H-pyrazole-3-carboxamide]
EC50 (CFTR ΔF508 mutant): 0.027 µM
EC50 (CFTR G551D mutant): 1.56 µM

CC1(C)Cc2c(sc(NC(=O)CO)c2C(N)=O)C(C)(C)O1 [Compound 66, 2-[(2-hydroxyacetyl)amino]-5,5,7,7-tetramethyl-4H-thieno[2,3-c]pyran-3-carboxamide]
EC50 (CFTR ΔF508 mutant): 0.084 µM
EC50 (CFTR G551D mutant): 3.33 µM

CC(C)C(O)CC(=O)Nc1sc2c(c1C(N)=O)CC(C)(C)OC2(C)C (stereo not shown) [Compound 67, 2-[(3-hydroxy-4-methyl-pentanoyl)amino]-5,5,7,7-tetramethyl-4H-thieno[2,3-c]pyran-3-carboxamide]
EC50 (CFTR ΔF508 mutant): 0.0427 µM
EC50 (CFTR G551D mutant): 3.33 µM

CC1(C)Cc2c(sc(NC(=O)CC(O)C3CC3)c2C(N)=O)C(C)(C)O1 (stereo not shown) [Compound 68, 2-[(3-cyclopropyl-3-hydroxy-propanoyl)amino]-5,5,7,7-tetramethyl-4H-thieno[2,3-c]pyran-3-carboxamide]
EC50 (CFTR ΔF508 mutant): 0.06 µM
EC50 (CFTR G551D mutant): 3.33 µM

CC1(C)Cc2c(sc(NC(=O)CC(O)C(F)(F)F)c2C(N)=O)C(C)(C)O1 (stereo not shown) [Compound 69, 5,5,7,7-tetramethyl-2-[(4,4,4-trifluoro-3-hydroxy-butanoyl)amino]-4H-thieno[2,3-c]pyran-3-carboxamide]
EC50 (CFTR ΔF508 mutant): 0.0342 µM
EC50 (CFTR G551D mutant): 3.33 µM

CC(CO)C(=O)Nc1sc2c(c1C(N)=O)CC(C)(C)OC2(C)C (stereo not shown) [Compound 70, 2-[(3-hydroxy-2-methyl-propanoyl)amino]-5,5,7,7-tetramethyl-4H-thieno[2,3-c]pyran-3-carboxamide]
EC50 (CFTR ΔF508 mutant): 0.176 µM
EC50 (CFTR G551D mutant): 3.33 µM

CC1(C)Cc2c(sc(NC(=O)c3n[nH]cc3C#N)c2C(N)=O)C(C)(C)O1 [Compound 73, N-(3-carbamoyl-5,5,7,7-tetramethyl-4H-thieno[2,3-c]pyran-2-yl)-4-cyano-1H-pyrazole-3-carboxamide]
EC50 (CFTR ΔF508 mutant): 0.0208 µM
EC50 (CFTR G551D mutant): 0.57 µM

CC1(C)Cc2c(sc(NC(=O)C3CCOC3)c2C(N)=O)C(C)(C)O1 (stereo not shown) [Compound 163, 5,5,7,7-tetramethyl-2-(tetrahydrofuran-3-carbonylamino)-4H-thieno[2,3-c]pyran-3-carboxamide]
EC50 (CFTR ΔF508 mutant): 0.636 µM

COC(C)(C)C(=O)Nc1sc2c(c1C(N)=O)CC(C)(C)OC2(C)C [Compound 164, 2-[(2-methoxy-2-methyl-propanoyl)amino]-5,5,7,7-tetramethyl-4H-thieno[2,3-c]pyran-3-carboxamide]
EC50 (CFTR ΔF508 mutant): 0.646 µM

CC1(C)Cc2c(sc(NC(=O)C(O)C(F)(F)F)c2C(N)=O)C(C)(C)O1 (stereo not shown) [Compound 167, 5,5,7,7-tetramethyl-2-[(3,3,3-trifluoro-2-hydroxy-propanoyl)amino]-4H-thieno[2,3-c]pyran-3-carboxamide]
EC50 (CFTR ΔF508 mutant): 0.00758 µM
